Source: the supplement of paper PMC11208160

Experiment: recombinant UMI read abundance after kanamycin selection (control-corrected) (log10(CPM+1)); higher = more efficient recombination; extreme values may be limits of the assay; sequences stand for … in AGTGCAGAGAAAATCGGCCAGTTTTCTCTGCCTGCAGTCCGCATGCCGTGGGACCCCTTGGGTTCTAACCTGTTGCCTAGATTTATGCAGCGGACTGCCTTTCTCCCAAAGTGATAAACCGG…AGGTTGGTTTCACT; site = the 11-nt donor
Method in brief: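 After plating on IPTG (0.07 mM) plus kanamycin, or unselected, in two replicates, recombinant UMIs were PCR-amplified across the donor–target junction and sequenced. The cells were Escherichia coli co-electroporated with a UMI-tagged donor and donor-binding-loop pair library and a target plasmid with a fixed target and T7-inducible IS621 bridge recombinase. Values are log10(CPM+1), with CPM averaged over replicates and scaled by control-derived factors.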
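Note: IS621 bridge recombinase in Escherichia coli cells against a fixed T5 target plasmid.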

Point of comparison: “CGGAACCCATGGACCGGTTTTCCCGGTAATCCGTATTTGGT (site CGGAATCCTAA)”, “recombinant UMI read abundance (log10)” value 0. Against it:
- CGCCTTTCATGGACCGGTTTTCCCGGTAATCCGTATTTGAC (site AGCCTTTCTGT) — the same, 0
- CGCCTTTCATGGACCGGTTTTCCCGGTAATCCGTATTTGAC (site CGCCTTTCTGT) — the same, 0
- CGCCTTTCATGGACCGGTTTTCCCGGTAATCCGTATTTGAC (site GGCCTTTCTGT) — the same, 0
- CGCCTTTCATGGACCGGTTTTCCCGGTAATCCGTATTTGAC (site TGCCTTTCTGT) — the same, 0
- CGCGAGCCATGGACCGGTTTTCCCGGTAATCCGTATTTGGA (site CGCGAGCCTTC) — within 0.2 log units, 0.181
- CGCGCTCCATGGACCGGTTTTCCCGGTAATCCGTATTTGTC (site CGCGCTCCTGA) — higher, 1.94
- CGCGGACCATGGACCGGTTTTCCCGGTAATCCGTATTTGGG (site CGAGGACCTCC) — within 0.2 log units, 0.0232
- CGCGGACCATGGACCGGTTTTCCCGGTAATCCGTATTTGGG (site CGCGGACCTCC) — the same, 0
- CGCGGACCATGGACCGGTTTTCCCGGTAATCCGTATTTGGG (site CGGGGACCTCC) — within 0.2 log units, 0.0209
- CGCGGACCATGGACCGGTTTTCCCGGTAATCCGTATTTGGG (site CGTGGACCTCC) — within 0.2 log units, 0.0246
- CGCGGCACATGGACCGGTTTTCCCGGTAATCCGTATTTGTA (site CGCGGCACTTA) — higher, 1.66
- CGCGTCTCATGGACCGGTTTTCCCGGTAATCCGTATTTGTA (site CGCGTCTCTTA) — higher, 3.26
- CGCTAATCATGGACCGGTTTTCCCGGTAATCCGTATTTGGG (site CGCTAATCTCC) — higher, 1.5
- CGCTACTCATGGACCGGTTTTCCCGGTAATCCGTATTTGCT (site CGCTACTCTAG) — higher, 2.85
- CGCTAGCCATGGACCGGTTTTCCCGGTAATCCGTATTTGCC (site CACTAGCCTGG) — within 0.2 log units, 0.0111
- CGCTAGCCATGGACCGGTTTTCCCGGTAATCCGTATTTGCC (site CCCTAGCCTGG) — the same, 0
- CGCTAGCCATGGACCGGTTTTCCCGGTAATCCGTATTTGCC (site CGCTAGCCTGG) — higher, 0.816
- CGCTAGCCATGGACCGGTTTTCCCGGTAATCCGTATTTGCC (site CTCTAGCCTGG) — higher, 1.8
- CGCTCAACATGGACCGGTTTTCCCGGTAATCCGTATTTGCT (site CGATCATCTAG) — the same, 0
- CGCTCAACATGGACCGGTTTTCCCGGTAATCCGTATTTGCT (site CGCTCAACTAG) — the same, 0
- CGCTCAGCATGGACCGGTTTTCCCGGTAATCCGTATTTGGG (site AGCTCAGCTCC) — the same, 0
- CGCTCAGCATGGACCGGTTTTCCCGGTAATCCGTATTTGGG (site CGCTCAGCTCC) — within 0.2 log units, 0.0677
- CGCTCAGCATGGACCGGTTTTCCCGGTAATCCGTATTTGGG (site GGCTCAGCTCC) — the same, 0
- CGCTCAGCATGGACCGGTTTTCCCGGTAATCCGTATTTGGG (site TGCTCAGCTCC) — within 0.2 log units, 0.00882
- CGCTCCGCATGGACCGGTTTTCCCGGTAATCCGTATTTGCA (site CGCTCCGCTTG) — higher, 1.79
- CGCTCCTCATGGACCGGTTTTCCCGGTAATCCGTATTTGCA (site CGCTCCTCTTG) — higher, 2.84
- CGCTGAGCATGGACCGGTTTTCCCGGTAATCCGTATTTGGT (site CGCTGAGCTAC) — higher, 1.31
- CGCTGATCATGGACCGGTTTTCCCGGTAATCCGTATTTGCC (site CGCTGATCTGG) — higher, 1.88
- CGCTGGACATGGACCGGTTTTCCCGGTAATCCGTATTTGAA (site CGCTGGACTTT) — higher, 1.77
- CGCTGTACATGGACCGGTTTTCCCGGTAATCCGTATTTGCT (site CGCAGTACTAG) — the same, 0
- CGCTGTACATGGACCGGTTTTCCCGGTAATCCGTATTTGCT (site CGCCGTACTAG) — higher, 1.54
- CGCTGTACATGGACCGGTTTTCCCGGTAATCCGTATTTGCT (site CGCGGTACTAG) — the same, 0
- CGCTGTACATGGACCGGTTTTCCCGGTAATCCGTATTTGCT (site CGCTGTACTAG) — higher, 1.68
- CGCTTCTCATGGACCGGTTTTCCCGGTAATCCGTATTTGGG (site CACTTCTCTCC) — within 0.2 log units, 0.0042
- CGCTTCTCATGGACCGGTTTTCCCGGTAATCCGTATTTGGG (site CCCTTCTCTCC) — within 0.2 log units, 0.0589
- CGCTTCTCATGGACCGGTTTTCCCGGTAATCCGTATTTGGG (site CGCTTCTCTCC) — within 0.2 log units, 0.00699
- CGCTTCTCATGGACCGGTTTTCCCGGTAATCCGTATTTGGG (site CTCTTCTCTCC) — within 0.2 log units, 0.0109
- CGCTTGGCATGGACCGGTTTTCCCGGTAATCCGTATTTGGA (site CACTTGGCTTC) — higher, 0.361
- CGCTTGGCATGGACCGGTTTTCCCGGTAATCCGTATTTGGA (site CCCTTGGCTTC) — the same, 0
- CGCTTGGCATGGACCGGTTTTCCCGGTAATCCGTATTTGGA (site CGCTTGGCTTC) — higher, 0.824
- CGCTTGGCATGGACCGGTTTTCCCGGTAATCCGTATTTGGA (site CTCTTGGCTTC) — within 0.2 log units, 0.00767
- CGGAAACCATGGACCGGTTTTCCCGGTAATCCGTATTTGCT (site CGGAAACCTAG) — the same, 0
- CGGAAACCATGGACCGGTTTTCCCGGTAATCCGTATTTGCT (site CGGAATCCTAA) — the same, 0
- CGGAACCCATGGACCGGTTTTCCCGGTAATCCGTATTTGGT (site CGGAACCCTAC) — higher, 1.06
- CGGAACCCATGGACCGGTTTTCCCGGTAATCCGTATTTGTG (site CGGAACCCTCA) — higher, 1.13
- CGGAACCCATGGACCGGTTTTCCCGGTAATCCGTATTTGTG (site CGGAATCCTAA) — the same, 0
- CGGAAGACATGGACCGGTTTTCCCGGTAATCCGTATTTGTG (site CGGAAGACTCA) — higher, 2.67
- CGGAATCCATGGACCGGTTTTCCCGGTAATCCGTATTTGAC (site CGGAATCCTAA) — within 0.2 log units, 0.003
- CGGAATCCATGGACCGGTTTTCCCGGTAATCCGTATTTGAC (site CGGAATCCTGT) — higher, 1.1
- CGGAATCCATGGACCGGTTTTCCCGGTAATCCGTATTTGAT (site CGGAATCCTAA) — the same, 0
- CGGAATCCATGGACCGGTTTTCCCGGTAATCCGTATTTGAT (site CGGAATCCTAC) — within 0.2 log units, 0.0207
- CGGAATCCATGGACCGGTTTTCCCGGTAATCCGTATTTGAT (site CGGAATCCTAG) — the same, 0
- CGGAATCCATGGACCGGTTTTCCCGGTAATCCGTATTTGAT (site CGGAATCCTAT) — higher, 0.646
- CGGAATCCATGGACCGGTTTTCCCGGTAATCCGTATTTGGT (site CGGAATCCTAA) — the same, 0
- CGGAATCCATGGACCGGTTTTCCCGGTAATCCGTATTTGGT (site CGGAATCCTAC) — higher, 0.913
- CGGAATCCATGGACCGGTTTTCCCGGTAATCCGTATTTGGT (site CGGAATCCTAG) — the same, 0
- CGGAATCCATGGACCGGTTTTCCCGGTAATCCGTATTTGGT (site CGGAATCCTAT) — the same, 0
- CGGAATCCATGGACCGGTTTTCCCGGTAATCCGTATTTGTA (site CGGAATCCTAA) — the same, 0
- CGGAATCCATGGACCGGTTTTCCCGGTAATCCGTATTTGTA (site CGGAATCCTCA) — higher, 0.781
- CGGAATCCATGGACCGGTTTTCCCGGTAATCCGTATTTGTA (site CGGAATCCTGA) — the same, 0
- CGGAATCCATGGACCGGTTTTCCCGGTAATCCGTATTTGTA (site CGGAATCCTTA) — higher, 1.29
- CGGAATGCATGGACCGGTTTTCCCGGTAATCCGTATTTGGT (site CGGAATCCTAA) — the same, 0
- CGGAATGCATGGACCGGTTTTCCCGGTAATCCGTATTTGGT (site CGGAATGCTAC) — higher, 2.27
- CGGAATTCATGGACCGGTTTTCCCGGTAATCCGTATTTGTT (site CGGAATACTAA) — within 0.2 log units, 0.00592
- CGGAATTCATGGACCGGTTTTCCCGGTAATCCGTATTTGTT (site CGGAATCCTAA) — within 0.2 log units, 0.0141
- CGGAATTCATGGACCGGTTTTCCCGGTAATCCGTATTTGTT (site CGGAATGCTAA) — within 0.2 log units, 0.00572
- CGGAATTCATGGACCGGTTTTCCCGGTAATCCGTATTTGTT (site CGGAATTCTAA) — higher, 2.72
- CGGACATCATGGACCGGTTTTCCCGGTAATCCGTATTTGCG (site CGGACATCTAG) — the same, 0
- CGGACATCATGGACCGGTTTTCCCGGTAATCCGTATTTGCG (site CGGACATCTCG) — higher, 2.25
- CGGACATCATGGACCGGTTTTCCCGGTAATCCGTATTTGCG (site CGGACATCTGG) — the same, 0
- CGGACATCATGGACCGGTTTTCCCGGTAATCCGTATTTGCG (site CGGACATCTTG) — within 0.2 log units, 0.00626
- CGGACCCCATGGACCGGTTTTCCCGGTAATCCGTATTTGTT (site CGGAATCCTAA) — within 0.2 log units, 0.00407
- CGGACCCCATGGACCGGTTTTCCCGGTAATCCGTATTTGTT (site CGGACCCCTAA) — higher, 1.02
- CGGACTACATGGACCGGTTTTCCCGGTAATCCGTATTTGCG (site CGGACTACTCG) — higher, 1.64
